The text below walks through data of patent publication US7785607B2 (priority 2004, dated 2010).

This test relates to IFN-gamma-producing T lymphocytes (PBMC). Format: cell-based, human. Particulars: for SFCs/2.5 × 10^5 cells: μg/mL: proteins 2 each, ESAT-6 pool 50, CFP-10 pool 8, both pools 58, PHA 1, PPD 10.

Where two headings read alike, the source gives them in different places.

In the case of phytohemagglutinin [PHA], the “Absolute value (spots in control wells subtracted)” value (from here on “Absolute value”) stood at 237 and the “response scored positive or negative” value is listed as “positive”. Besides, the “SFCs/2.5 × 10^5 cells” value ([…], mean of duplicate wells) is on record as 240 SFCs/2.5 × 10^5 cells. Further, the “Absolute value” value (sample 1b latent tuberculosis) is reported as 236. Also, the “SFCs/2.5 × 10^5 cells” value (sample 1b latent tuberculosis, mean of duplicate wells) turned out to be 240 SFCs/2.5 × 10^5 cells. For the same substance, the “response scored positive or negative” value (sample 1e anergic subject) was “negative”. Further, under “sample 1e anergy”, the “Absolute value” value was determined as 6 and the “SFCs/2.5 × 10^5 cells” value was determined as 11 SFCs/2.5 × 10^5 cells. The “response scored positive or negative” value (sample 1d healthy control) is listed as “positive”.
